What was measured:
Assay type in all cases: in vivo
Echinochloa oryzicola = test: Herbicidal activity by paddy field soil treatment (Test Example 1); set-up: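 index 0 to 10 in 10% steps of herbicidal effect with 10 meaning complete death and 0 below 10%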; details: 1000 g of effective component per hectare, evaluated on day 21 after the treatment, criteria of Table 72
How it was run: (§1)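 Pre-emergence paddy soil test: sown pots, 3 cm flood, water-surface application of diluted wettable powder 1 day after sowing, 1000 g a.i./ha; greenhouse; effect scored on graded scale at day 21.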

Monochoria vaginalis = test: as above; set-up: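 index 0 to 10 in 10% steps of herbicidal effect with 10 meaning complete death and 0 below 10%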; details: 1000 g of effective component per hectare, evaluated on day 21 after the treatment, criteria of Table 72
How it was run: as §1

Scirpus juncoides Rocxb. = test: as above; set-up: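 index 0 to 10 in 10% steps of herbicidal effect with 10 meaning complete death and 0 below 10%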; details: applied on water surface, 1000 g of effective component per hectare, day 21 after the treatment
How it was run: as §1

A. retroflexus [1] = test: Herbicidal activity by field soil treatment (Test example 2); set-up: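 index 0 to 10 in 10% steps of herbicidal effect with 10 meaning complete death and 0 below 10%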; details: 1000 g effective component per hectare, day 21 after the treatment
How it was run: (§2)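 Soil-surface spray after sowing; wettable powder in water, 1000 g a.i./ha at 1000 L/ha. 80 cm^2 pots, field soil, greenhouse. Visual herbicidal score on day 21.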

Echinochloa crus-galli [2] = test: as above; set-up: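 index 0 to 10 in 10% steps of herbicidal effect with 10 meaning complete death and 0 below 10%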; details: 1000 g effective component per hectare, day 21 after the treatment
How it was run: as §2

Indian millet [3] = test: as above; set-up: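 index 0 to 10 in 10% steps of herbicidal effect with 10 meaning complete death and 0 below 10%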; details: 1000 g effective component per hectare, day 21 after the treatment
How it was run: as §2

A. retroflexus [4] = test: Herbicidal activity by field foliage treatment (Test example 3); set-up: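 index 0 to 10 in 10% steps of herbicidal effect with 10 meaning complete death and 0 below 10%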; details: 1000 g effective component per hectare, day 14 after the treatment
How it was run: (§3)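 Post-emergence foliar spray, 2-week-old greenhouse seedlings in field soil; wettable powder in water, 1000 g a.i./ha in 1000 L/ha. Greenhouse hold, visual herbicidal rating at 14 d.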

Indian millet [5] = test: as above; set-up: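 index 0 to 10 in 10% steps of herbicidal effect with 10 meaning complete death and 0 below 10%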; details: 1000 g effective component per hectare, day 14 after the treatment
How it was run: as §3

Echinochloa crus-galli [6] = test: as above; set-up: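 index 0 to 10 in 10% steps of herbicidal effect with 10 meaning complete death and 0 below 10%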; details: 1000 g effective component per hectare, day 14 after the treatment
How it was run: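 Herbicidal effect was rated on day 14 following a foliar spray of 1000 g active ingredient per hectare, applied as water-diluted wettable powder at 1000 L/ha. Plants had been raised for 2 weeks in field soil under greenhouse conditions before spraying.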

Setaria viridis = test: as above; details: 1000 g effective component per hectare, day 14 after the treatment;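 note: index 0 to 10 in 10% steps of herbicidal effect with 10 meaning complete death and 0 below 10%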
Protocol: Test example 3 Test for Determining Herbicidal Activity by Field Foliage Treatment A 80 cm^2 wide plastic pot was filled with a field soil and seeds of each of Indian millet and A. retroflexus were sowed and then incubated for 2 weeks in a green house. The wettable powder produced with reference to the Formulation example 1 was diluted water, and applied from the air to entire body of the plant as foliage treatment by using a small sprayer in an amount of 1000 liters per hectare so that the effective component is 1000 g per hectare. After that, the plants were cultivated in a greenhouse, and on day 14 after the treatment, evaluation was made by the criteria described in Table 72 for determining the herbicidal effects.

Structure (SMILES) | Herbicidal effects index number, Echinochloa oryzicola (Echinochloa oryzicola) | Herbicidal effects index number, Monochoria vaginalis (Monochoria vaginalis) | herbicidal effect index, S. juncoides Rocxb. (Scirpus juncoides Rocxb.) | herbicidal effect index, Amaranthus retroflexus (A. retroflexus [1]) | herbicidal effect index, Echinochloa crus-galli (Echinochloa crus-galli [2]) | herbicidal effect index, Abutilon theophrasti (Indian millet [3]) | herbicidal effect index, Amaranthus retroflexus (A. retroflexus [4]) | herbicidal effect index, Abutilon theophrasti (Indian millet [5]) | herbicidal effect index, Echinochloa crus-galli (Echinochloa crus-galli [6]) | herbicidal effect index, Setaria viridis (Setaria viridis)
Cn1nc(C(=O)C2=C(O)CCCC2=O)c(=O)n(-c2ccc(F)cn2)c1=O [I-184] | 10 | 10 | 10 | 10 | 8 | 10 | 10 | 9 | 10 | 8
Cn1nc(C(=O)C2=C(O)CCCC2=O)c(=O)n(-c2ccc(Cl)cn2)c1=O [I-185] | 8 | 9 | 9 | 10 | 9 | 10 | 10 | 9 | 10 | 9
Cn1nc(C(=O)C2=C(O)CCCC2=O)c(=O)n(-c2ccc(C(F)(F)F)cn2)c1=O [I-187] | 10 | 10 | 10 | 10 | 7 | 9 | 10 | 9 | 8 | 8
Cn1nc(C(=O)C2=C(O)CCCC2=O)c(=O)n(-c2ccsc2)c1=O [I-199] | 9 | 8 | 9 | 10 | 9 | 10 | 9 | 9 | 10 | 8
Cn1c(=O)c(C(=O)C2=C(O)CCCC2=O)nn(-c2ccccn2)c1=O [I-274] | 8 | 8 | 4 | 7 | 7 | 8 | 9 | 8 | 9 | 8
CCn1c(=O)c(C(=O)C2=C(O)CCCC2=O)nn(-c2ccccn2)c1=O [I-275] | 9 | 10 | 8 | 10 | 8 | 10 | 9 | 9 | 9 | 8
Cn1nc(C(=O)C2=C(O)CCCC2=O)c(=O)n(-c2cc(F)c(F)c(F)c2)c1=O [I-302] | 10 | 10 | 10 | 10 | 7 | 10 | 10 | 10 | 10 | 10
CON=C(C)Cn1c(=O)c(C(=O)C2=C(O)CCCC2=O)nn(C)c1=O [I-471] | 10 | 10 | 10 | 10 | 7 | 10 | 10 | 10 | 9 | 10
CC(C)N(c1ccccc1)n1c(=O)c(C(=O)C2=C(O)CCCC2=O)nn(C)c1=O [I-475] | 10 | 10 | 10 | 7 | 7 | 7 | 9 | 8 | 9 | 7
CC(Cn1c(=O)c(C(=O)C2=C(O)CCCC2=O)nn(C)c1=O)=NOC(C)C [I-479] | 10 | 10 | 10 | 10 | 9 | 10 | 10 | 9 | 9 | 7
CSc1c(Cl)cc(-n2c(=O)c(C(=O)O)nn(C)c2=O)cc1Cl [V-300] | 10 | 10 | 10 | 10 | 7 | 9 | 10 | 9 | 8 | 8

— patent publication US8969554B2, “6-acyl-1,2,4-triazine-3,5-dione derivative and herbicides” (Kumiai Chemical Industry Co., Ltd., priority 2010, dated 2015)
